Experimental data reported in US8637537B2, “Serine/threonine kinase inhibitors” (Genentech, Inc., priority 2011, dated 2014).

The compounds below were run against T1, human recombinant GST-PAK1-KD protein (Homo sapiens, UniProt Q13153) (assay: GST-PAK1-KD (kinase domain) biochemical assay, microfluidic mobility shift). Details: not given.
T1 construct: residues #249-545 of human PAK1, UniProtKP/Swiss Q13153; His6 (N); made in house; host or cells: Sf9 insect cells, pAcGP67 baculovirus expression vector
T1 sequence (Q13153 249-545): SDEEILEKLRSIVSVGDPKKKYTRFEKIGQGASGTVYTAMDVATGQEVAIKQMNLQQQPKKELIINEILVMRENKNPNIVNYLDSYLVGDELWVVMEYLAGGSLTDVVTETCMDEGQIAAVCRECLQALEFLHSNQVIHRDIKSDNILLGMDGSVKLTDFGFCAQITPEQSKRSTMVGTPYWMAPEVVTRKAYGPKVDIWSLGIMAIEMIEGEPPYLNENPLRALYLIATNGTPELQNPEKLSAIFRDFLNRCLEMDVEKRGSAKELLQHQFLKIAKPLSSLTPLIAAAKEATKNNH
Procedure: Activity of human recombinant GST-PAK1-KD protein was assessed in vitro assay by observing the phosphorylation of a fluorogenic peptide substrate.
The peptide substrate is a consensus sequence based on various PAK1 substrates reported in the scientific literature. […] Incubations were carried out at 22° C. in MatriCal MP101 384-well Metriplates™. […] Following the 30-minute incubation, the assay mixtures were quenched by the addition of 3 μL of 250 mM EDTA, and the substrate and phosphorylated product were separated by capillary electrophoresis and detected using LabChip® Caliper 3000 (Caliper Life Sciences).

Row | Compound | Ki [nM]
1 | CN(Cc1ccc2[nH]cnc2c1Cl)c1nccc(Nc2cc(C3CC3)[nH]n2)n1 [I-87, N^2-((4-chloro-1H-benzo[d]imidazol-5-yl)methyl)-N^4-(5-cyclopropyl-1H-pyrazol-3-yl)-N^2-methylpyrimidine-2,4-diamine] | < 50
2 | Fc1c(CNc2nccc(Nc3cc(C4CC4)[nH]n3)n2)ccc2[nH]cnc12 [I-29, N^4-(5-Cyclopropyl-1H-pyrazol-3-yl)-N^2-[(4-fluoro-1H-benzimidazol-5-yl)methyl]pyrimidine-2,4-diamine] | 250 to 1000

Same assay, conditions: GST-PAK1-KD Inhibition Assay - Example 65; read-out: PAK1 inhibition Ki

Row | Compound | Ki [nM]
3 | Clc1c(CNc2nccc(Nc3cc(COC4CCC4)[nH]n3)n2)ccc2[nH]cnc12 [II-43, N^2-((4-Chloro-1H-benzo[d]imidazol-5-yl)methyl)-N^4-(5-(cyclobutoxymethyl)-1H-pyrazol-3-yl)pyrimidine-2,4-diamine] | 284

Same assay, conditions: Table I, PAK1 Ki class; read-out: Ki

Row | Compound | Ki [nM]
4 | Cc1cc(Nc2cc(C3CC3)[nH]n2)nc(NCc2ccc3[nH]ccc3c2Cl)n1 [I-19, N^2-((4-chloro-1H-indol-5-yl)methyl)-N^4-(5-cyclopropyl-1H-pyrazol-3-yl)-6-methylpyrimidine-2,4-diamine] | 50 to 250
5 | FC1(F)CC(c2cc(Nc3ccnc(NCc4ccc5[nH]cnc5c4Cl)n3)n[nH]2)C1 [I-105, N^2-((4-chloro-1H-benzo[d]imidazol-5-yl)methyl)-N^4-(5-(3,3-difluorocyclobutyl)-1H-pyrazol-3-yl)pyrimidine-2,4-diamine] | < 50
6 | Clc1cc2[nH]ccc2cc1CNc1nccc(Nc2cc(C3CC3)[nH]n2)n1 [I-93, N^2-((6-Chloro-1H-indol-5-yl)methyl)-N^4 (5-cyclopropyl-1H-pyrazol-3-yl)pyrimidine-2,4-diamine] | 50 to 250
7 | c1cc(Nc2cc(C3CC3)[nH]n2)nc(NCc2ccc3cc[nH]c3c2)n1 [I-35, N^2-((1H-Indol-6-yl)methyl)-N^4-(5-cyclopropyl-1H-pyrazol-3-yl)pyrimidine-2,4-diamine] | > 1000
8 | C[C@H](Nc1ncc(Cl)c(Nc2cc(C3CC3)[nH]n2)n1)c1ccc2[nH]ccc2c1 [I-110, (S)—N^2-(1-(1H-indol-5-yl)ethyl)-5-chloro-N^4-(5-cyclopropyl-1H-pyrazol-3-yl)pyrimidine-2,4-diamine] | 250 to 1000
9 | Cc1cc2[nH]cnc2cc1CNc1nccc(Nc2cc(C3CC3)[nH]n2)n1 [I-30, N^4-(5-Cyclopropyl-1H-pyrazol-3-yl)-N^2-[(6-methyl-1H-benzimidazol-5-yl)methyl]pyrimidine-2,4-diamine] | 250 to 1000
10 | Fc1cc2[nH]cnc2cc1CNc1nccc(Nc2cc(C3CC3)[nH]n2)n1 [I-28, N^4-(5-Cyclopropyl-1H-pyrazol-3-yl)-N^2-((6-fluoro-1H-benzo[d]imidazol-5-yl)methyl)pyrimidine-2,4-diamine] | 50 to 250
11 | c1cc(CNc2nccc(Nc3cc(C4CCC4)[nH]n3)n2)c2cc[nH]c2c1 [I-36, N^2-((1H-indol-4-yl)methyl)-N^4-(5-cyclobutyl-1H-pyrazol-3-yl)pyrimidine-2,4-diamine] | < 50
12 | C[C@H](Nc1nccc(Nc2cc([C@@H]3C[C@@H]3F)[nH]n2)n1)c1ccc2[nH]ccc2c1 [I-64, N^2—((S)-1-(1H-indol-5-yl)ethyl)-N^4-(5-((1S,2S)-2-fluorocyclopropyl)-1H-pyrazol-3-yl)pyrimidine-2,4-diamine] | 50 to 250
13 | c1cc(Nc2cc(C3CC3)[nH]n2)nc(NCc2ccc3[nH]ncc3c2)n1 [I-102, N^4-(5-cyclopropyl-1H-pyrazol-3-yl)-N^2-(1H-indazol-5-ylmethyl)pyrimidine-2,4-diamine] | 250 to 1000

Same assay, conditions: Table II, PAK1 Ki class; read-out: Ki

Row | Compound | Ki [nM]
14 | COc1cc(CNc2ncc(F)c(Nc3cc(C4CC4)[nH]n3)n2)c2cn[nH]c2c1 [II-98, N^4-(5-cyclopropyl-1H-pyrazol-3-yl)-5-fluoro-N^2-((6-methoxy-1H-indazol-4-yl)methyl)pyrimidine-2,4-diamine] | < 50
15 | Clc1c(CNc2nccc(Nc3cc(COC4CCC4)[nH]n3)n2)ccc2[nH]cnc12 [II-43, N^2-((4-Chloro-1H-benzo[d]imidazol-5-yl)methyl)-N^4-(5-(cyclobutoxymethyl)-1H-pyrazol-3-yl)pyrimidine-2,4-diamine] | 50 to 250
16 | Clc1c(CNc2nccc(Nc3cc(OCC4CC4)[nH]n3)n2)ccc2[nH]cnc12 [II-6, N^2-(4-Chloro-1H-benzoimidazol-5-ylmethyl)-N4-(5-cyclopropylmethoxy-1H-pyrazol-3-yl)-pyrimidine-2,4-diamine] | < 50
17 | Cc1cc2c(CNc3nccc(Nc4cc(C5CC5)[nH]n4)n3)cccc2[nH]1 [II-15, N^4-(5-Cyclopropyl-1H-pyrazol-3-yl)-N^2-((2-methyl-1H-indol-4-yl)methyl)pyrimidine-2,4-diamine] | < 50
18 | CN(Cc1cc(F)cc2[nH]ncc12)c1nccc(Nc2cc(C3CC3)[nH]n2)n1 [II-58, N^4-(5-cyclopropyl-1H-pyrazol-3-yl)-N^2-((6-fluoro-1H-indazol-4-yl)methyl)-N^2-methylpyrimidine-2,4-diamine] | < 50
19 | Fc1cc(CNc2ncc(F)c(Nc3cc([C@@H]4CC4(F)F)[nH]n3)n2)c2cn[nH]c2c1 [II-101, (S)-N^4-(5-(2,2-difluorocyclopropyl)-1H-pyrazol-3-yl)-5-fluoro-N^2-((6-fluoro-1H-indazol-4-yl)methyl)pyrimidine-2,4-diamine] | 50 to 250
20 | C[C@H](Nc1nccc(Nc2cc(C3CC3)[nH]n2)n1)c1cccc2[nH]cnc12 [II-41, (S)-N^2-(1-(1H-benzo[d]imidazol-4-yl)ethyl)-N^4-(5-cyclopropyl-1H-pyrazol-3-yl)pyrimidine-2,4-diamine] | 50 to 250
21 | CN(Cc1ccc2[nH]cnc2c1)c1ncc(F)c(Nc2cc(C3CC3)[nH]n2)n1 [II-103, N^2-((1H-benzo[d]imidazol-5-yl)methyl)-N^4-(5-cyclopropyl-1H-pyrazol-3-yl)-5-fluoro-N^2-methylpyrimidine-2,4-diamine] | 50 to 250
22 | Clc1c[nH]c2cccc(CNc3nccc(Nc4cc(C5CC5)[nH]n4)n3)c12 [II-112, N^2-((3-chloro-1H--indol-4-yl)methyl)-N^4-(5-cyclopropyl-1H-pyrazol-3-yl)pyrimidine-2,4-diamine] | < 50
23 | Clc1cc(CNc2nccc(Nc3cc(C4CC4)[nH]n3)n2)c2nc[nH]c2c1 [II-44, N^2-((6-Chloro-1H-benzo[d]imidazol-4-yl)methyl)-N^4-(5-cyclopropyl-1H-pyrazol-3-yl)-pyrimidine-2,4-diamine] | < 50
24 | CCN(Cc1cc(F)cc2[nH]ncc12)c1nccc(Nc2cc([C@H](C)C3CC3)[nH]n2)n1 [II-92, (R)-N^4-(5-(1-cyclopropylethyl)-1H-pyrazol-3-yl)-N^2-ethyl-N^2((6-fluoro-1H-indazol-4-yl)methyl)pyrimidine-2,4-diamine] | < 50
25 | COCCN(Cc1ccc2[nH]cnc2c1)c1nccc(Nc2cc(C3CC3)[nH]n2)n1 [II-35, N^2-((1H-benzo[d]imidazol-5-yl)methyl)-N^4-(5-cyclopropyl-1H-pyrazol-3-yl)-N^2-(2-methoxyethyl)pyrimidine-2,4-diamine] | 50 to 250
26 | C[C@H](Nc1nccc(Nc2cc(C3CC3)[nH]n2)n1)c1c(F)ccc2[nH]ncc12 [II-61, (S)-N^4-(5-cyclopropyl-1H-pyrazol-3-yl)-N^2-(1-(5-fluoro-1H-indazol-4-yl)ethyl)pyrimidine-2,4-diamine] | < 50
27 | C[C@H](CN(Cc1cc(F)cc2[nH]ncc12)c1nccc(Nc2cc(C3CC3)[nH]n2)n1)N(C)C [II-62, (R)-N^4-(5-cyclopropyl-1H-pyrazol-3-yl)-N^2-(2-(dimethylamino)propyl)-N^2-((6-fluoro-1H-indazol-4-yl)methyl)pyrimidine-2,4-diamine] | < 50
